In ChEMBL document CHEMBL1124256, “Enantiomeric effects of homologues of disoxaril on the inhibitory activity against human rhinovirus-14” (1988):
In brackets after ≈: the same amount, converted by molar mass.

System: Human rhinovirus sp.
Assay: In vitro minimum inhibitory concentration against human rhinovirus-14 (HRV-14)
Assay type: functional

MIC [µg/mL] | Compound
0.02 (≈ 0.0561 µM) | Cc1cc(CCCCCCCOc2ccc(C3=N[C@@H](C)CO3)cc2)on1
0.14 (≈ 0.409 µM) | Cc1cc(CCCCCCCOc2ccc(C3=NCCO3)cc2)on1 [DISOXARIL]
0.52 (≈ 1.3 µM) | CCCC[C@@H]1COC(c2ccc(OCCCCCCCc3cc(C)no3)cc2)=N1
0.06 (≈ 0.151 µM) | CCCC[C@H]1COC(c2ccc(OCCCCCCCc3cc(C)no3)cc2)=N1
0.01 (≈ 0.027 µM) | CC[C@H]1COC(c2ccc(OCCCCCCCc3cc(C)no3)cc2)=N1
0.03 (≈ 0.0842 µM) | Cc1cc(CCCCCCCOc2ccc(C3=NC(C)CO3)cc2)on1 (stereo not drawn)
0.03 (≈ 0.078 µM) | Cc1cc(CCCCCCCOc2ccc(C3=N[C@@H](C(C)C)CO3)cc2)on1
0.07 (≈ 0.182 µM) | CCC[C@@H]1COC(c2ccc(OCCCCCCCc3cc(C)no3)cc2)=N1
0.2 (≈ 0.561 µM) | Cc1cc(CCCCCCCOc2ccc(C3=N[C@H](C)CO3)cc2)on1
0.03 (≈ 0.081 µM) | Cc1cc(CCCCCCCOc2ccc(C3=NC(C)(C)CO3)cc2)on1
0.01 (≈ 0.026 µM) | CCC[C@H]1COC(c2ccc(OCCCCCCCc3cc(C)no3)cc2)=N1
0.06 (≈ 0.162 µM) | CC[C@@H]1COC(c2ccc(OCCCCCCCc3cc(C)no3)cc2)=N1
0.13 (≈ 0.338 µM) | Cc1cc(CCCCCCCOc2ccc(C3=N[C@H](C(C)C)CO3)cc2)on1
